Holding throughout (experiment): HMF sulfoconjugation assay
One experiment concerns the target T1, hSULT4A1 (Homo sapiens, UniProt Q9BR01).
T1 construct: made in house; host or cells: Salmonella typhimurium TA1538 (cytosolic fraction, not purified)
T1 sequence (Q9BR01 1-284): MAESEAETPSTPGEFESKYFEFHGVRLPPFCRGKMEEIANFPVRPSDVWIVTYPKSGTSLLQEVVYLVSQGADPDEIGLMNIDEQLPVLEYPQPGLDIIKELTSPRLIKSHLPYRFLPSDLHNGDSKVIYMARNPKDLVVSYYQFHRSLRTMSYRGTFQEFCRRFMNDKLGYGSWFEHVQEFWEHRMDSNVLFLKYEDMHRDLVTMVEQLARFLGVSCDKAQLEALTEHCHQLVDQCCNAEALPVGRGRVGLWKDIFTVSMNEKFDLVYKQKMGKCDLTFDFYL
It counts as biochemical. Summed up: (§1)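 SULT cytosol from TA1538, 25–200 µg protein; KPi 50 mM pH 7.4, MgCl2 5 mM, PAPS 50 µM; HMF varied; 37 °C, 30 min; stop with ice-cold 2-propanol; SMF by UPLC-MS/MS, LOD 0.5 pmol SMF/mg/min.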

For another experiment, the target named is T2, rSult1c1 (Rattus norvegicus, UniProt P50237).
T2 construct: made in house; host or cells: Salmonella typhimurium TA1538 (cytosolic fraction, enzyme not purified)
It counts as biochemical. The method, boiled down:
as §1

The subject of another experiment is rSult2a4. Type of experiment: biochemical, rat. How it is done:
(§2) Cytosolic fractions containing individual SULT forms were prepared from transgenic S. typhimurium TA1538. Table S1 in the Supplementary Material provides a summary of the thirty SULTs used in the current study together with references describing the cloning of the respective S. typhimurium TA1538 strains. The expressed SULT forms are denoted with the prefixes h, m and r for human, mouse and rat enzymes, respectively. Bacteria were grown in Luria Broth medium containing ampicillin (100 µg/ml) by stirring for 8 h at 200 revolutions/min at 37 °C. The bacterial suspensions were centrifuged at 5,000 g for 10 min. The sediments were washed twice with 25 ml of 10 mM potassium phosphate buffer (pH 7.4)/50 mM potassium chloride (KCP buffer) and centrifuged again. The pellets were taken up in 800 µl KCP buffer and sonicated thrice for 15 s with 30 s pauses in between. The soluble fraction was attained by centrifuging for 1 h at 100,000 g. The supernatants (in the following termed cytosolic preparations) were frozen at −80 °C. The protein concentrations were determined according to a bicinchoninic acid (BCA) assay protocol. The SULT concentrations in the cytosolic preparations were estimated after electrophoretic separation and immunodetection using inclusion bodies of different SULT forms as standards (Teubner et al. [2007]). The preparation of SULT inclusion bodies and the immunodetection of SULTs is described in the Supplementary Material, which also contains a representative immunoblot of different amounts of rSult1a1standard and a cytosolic preparation of S. typhimurium expressing rSult1a1 (Fig. S1).
(§3) The reactions were conducted in mixtures of 100 µl containing 25–200 µg protein, 50 mM potassium phosphate buffer (pH 7.4), 5 mM MgCl2, 50 µM PAPS and different concentrations of HMF at 37 °C. Preliminary experiments ensured that measurements were recorded under ‘linear’ conditions, i.e., doubling of protein concentration or incubation time was doubling the amount of sulfate ester formed. The reactions were stopped after 30 min by adding 300 µl ice-cold 2-propanol, mixed and centrifuged at 15,000 g for 10 min.
(§4) SMF concentrations of the clear supernatants were analyzed by UPLC-MS/MS. The protocol was adapted from the quantification of SMF in plasma samples of HMF-treated mice (Monien et al. [2009]). In short, the supernatants were analyzed using a UPLC system (Waters) connected to a Quattro Premier XE tandem quadrupole mass spectrometer (Waters) using the negative electrospray ionization mode. Samples of 4 µl were injected into a HSS T3 column (1.8 µm, 2.1 × 100 mm; Waters) and eluted with an isocratic flow of 0.35 ml/min 10 mM ammonium acetate/methanol (95:5). The fragmentation reactions of SMF yielding two principal ions, the sulfate ion radical (m/z = 204.9 → 96.0) and the protonated sulfonate ion (m/z = 204.9 → 81.0) were monitored. The tune parameters were as follows: temperature of the electrospray source 120 °C; desolvation temperature 475 °C; desolvation gas nitrogen (800 l/h); cone gas nitrogen (100 l/h); collision gas argon (indicated cell pressure ~5 × 10^−3 mbar). For the fragmentation of SMF, collision energies were 20 and 23 eV for the transitions m/z = 204.9 → 81.0 and m/z = 204.9 → 96.0, respectively. The dwell time was set to 100 ms, and capillary voltage was set to 0.35 kV. The cone and RF1 lens voltages were 32 and 0.2 V, respectively. SMF was quantified using an external calibration line that was linear in the concentration range of 1.0 nM (4 fmol/injection) to 2,500 (10 pmol/injection) SMF (r ^2 ≥ 0.99). Data acquisition and handling were performed with MassLynx 4.1 software (Waters). The limit of detection (LOD) for this technique of 2.5 nM SMF has been reported (Monien et al. [2009]). In the current study, this corresponds to 10 fmol SMF per injection or a reaction rate of 0.5 pmol SMF/mg/min.

A further experiment relates to rSult2a3. It counts as biochemical, rat. The method, then: as §2, §3, §4

T2 sequence (P50237 whole entry): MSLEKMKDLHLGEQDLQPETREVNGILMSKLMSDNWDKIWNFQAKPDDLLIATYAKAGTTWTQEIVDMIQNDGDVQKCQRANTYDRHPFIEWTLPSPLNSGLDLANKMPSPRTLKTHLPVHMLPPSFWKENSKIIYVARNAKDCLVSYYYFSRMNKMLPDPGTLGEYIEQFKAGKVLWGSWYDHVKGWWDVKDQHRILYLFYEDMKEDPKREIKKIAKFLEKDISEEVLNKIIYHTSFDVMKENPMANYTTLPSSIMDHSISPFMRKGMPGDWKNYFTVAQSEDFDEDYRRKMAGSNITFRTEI

Consider `O=Cc1ccc(CO)o1` [HMF, 5-Hydroxymethylfurfural], for which the Rate of sulfoconjugation is reported as less than 0.5 pmol/mg/min on hSULT4A1 (0.1 mM HMF); less than 0.5 pmol/mg/min on hSULT4A1 (1 mM HMF); less than 0.5 pmol/mg/min on hSULT4A1 (10 mM HMF); less than 0.5 pmol/mg/min on hSULT4A1 (100 mM HMF); 2.1 ± 1.3 pmol/mg/min at rSult1c1 (0.1 mM HMF); 29.1 ± 9.0 pmol/mg/min at rSult1c1 (1 mM HMF). The Rate of sulfoconjugation was 120 ± 39 pmol/mg/min at rSult1c1 (10 mM HMF); 47.5 ± 27.3 pmol/mg/min at rSult1c1 (100 mM HMF); less than 0.5 pmol/mg/min in the experiment on rSult2a4 (0.1 mM HMF); less than 0.5 pmol/mg/min in the experiment on rSult2a4 (1 mM HMF); less than 0.5 pmol/mg/min in the experiment on rSult2a4 (10 mM HMF); less than 0.5 pmol/mg/min in the experiment on rSult2a4 (100 mM HMF). Further, the Rate of sulfoconjugation was determined as 0.6 ± 0.0 pmol/mg/min in the experiment with rSult2a3 (0.1 mM HMF), 6.2 ± 0.2 pmol/mg/min in the experiment with rSult2a3 (1 mM HMF), 62.8 ± 4.6 pmol/mg/min in the experiment with rSult2a3 (10 mM HMF) and 76.5 ± 8.8 pmol/mg/min in the experiment on rSult2a3 (100 mM HMF). Moreover, the “K M” value on rSult1c1 (HMF sulfoconjugation, extended Michaelis-Menten equation with substrate inhibition) was found to be 18.4 ± 4.7 mM.

The values are drawn from PMC4710668, “Bioactivation of food genotoxicants 5-hydroxymethylfurfural and furfuryl alcohol by sulfotransferases from human, mouse and rat: a comparative study” (Archives of Toxicology, 2014).
